Measured values as given in patent US20140005275A1, “TOPICAL APPLICATION OF 1-HYDROXYL 3,5-BIS(4'HYDROXYL STYRYL)BENZENE” (priority 2012, published 2014).

Columns and labels:
[1] = test system: NF-kB luciferase promoter; test: NF-κB INHIBITION TEST (NF-kB luciferase reporter, TNFα-stimulated H9c2 cells); assay type: cell-based, Rat; conditions: TNFα 100 ng/ml, versus TNFα + Vehicle (0.1% DMSO)
Method: NFκB-INHIBITION TESTS were performed on various concentrations of 1-hydroxyl 3,5-bis(4′hydroxyl styryl)benzene and a vehicle control (DMSO). The 1-hydroxyl 3,5-bis(4′hydroxyl styryl)benzene was prepared as described in U.S. Pat. No. 7,745,670. The NF-κB INHIBITION TEST was conducted as follows. Rat cardiac myoblasts H9c2 cells were purchased from ATCC (Manassas, Va.). Cultures were maintained in Dulbecco's modified Eagle's medium (DMEM, Invitrogen Life Technologies, Carlsbad, Calif.) supplemented with 10% fetal bovine serum, 100 units/ml penicillin, and 50 ug/ml streptomycin (Invitrogen life technologies, Carlsbad, Calif.). 1×10^4 cells grown in 96-well plates were transiently transfected with 0.45 ug total DNA per well using Lipofectamine 2000 (Invitrogen life technologies, Carlsbad, Calif.). In all transfections, a construct with the thymidine kinase promoter and the Renilla luciferase reporter gene (pRL-TK, Promega, Madison Wis.) was included as an internal control in addition to the NF-kB luciferase promoter. One day after transfection, cells were treated with the indicated samples (in DMSO as vehicle) at indicated concentrations and stimulated with 100 ng/mL of Tumor Necrosis Factor-α (TNFα, Sigma-Aldrich, St Louis, Mo.) for approximately 24 hours before they were lysed for luciferase assays, using Dual-Luciferase Reporter System from Promega (Madison, Wis.), following manufacturer's protocol. Briefly, the firefly luciferase activity was measured first (representing NF-kB promoter activity), followed by the renilla luciferase (internal control), using luminometer LMAX, from Molecular Devices (Sunnyvale, Calif.). The ratio of these two luciferase activities (RLU) was used to evaluate the activity of each promoter: NF-κB Inhibition=[1−(RLUsample/RLUcontrol)]*100 where RLUsample and RLUcontrol are the normalized luciferase activity ratios of the sample and control, respectively. The results are shown in Table 1, in which NF-kB Gene Reporter Activation (Luminescence, L) is reported. Percent NF-kB Inhibition is also reported.

MMP-9 = test: Inhibition of TNF-α-induced MMP-9 levels in epidermal equivalents; assay type: cell-based, human; conditions: for Mean of MMP-9 Release: 2 hours before TNF-α (100 ng/mL), 48 hours
Method: The ability of 1-hydroxyl 3,5-bis(4′hydroxyl styryl)benzene to inhibit TNF-a induced MMP-9 levels was tested at different concentrations as follows. The formation of TNF-α induced MMP-9 is involved in the undesirable breakdown of extracellular matrix in human skin.
Epidermal equivalents (EPI 200 HCF) were purchased from MatTek (Ashland, Mass.). Upon receipt, the epidermal equivalents were incubated for 24 hours at 37° C. in maintenance medium without hydrocortisone. The equivalents were topically treated (2 mg/cm^2) with 1-hydroxyl 3,5-bis(4′hydroxyl styryl)benzene extracts in a 70% ethanol/30% propylene glycol vehicle 2 hours before treatment with TNF-α (100 ng/mL). the equivalents were incubated for 48 hours at 37° C. with maintenance medium then supernatants were analyzed for MMP-9 using commercially available kits (R&D Systems, Minneapolis, Minn.).

Elastin = test: Induction of Elastin gene expression in primary human dermal fibroblasts (quantitative PCR); assay type: cell-based; conditions: for Elastin Normalized Fold-change in PCR (Mean): 0.1 ug/mL, 48 hr, normalized to GAPDH, from untreated
Method: (§1) Primary human dermal fibroblasts (Lifeline Cell Technologies, Frederick, Md.) were grown until confluence in DMEM media (Invitrogen/Life Technologies, Carlsbad, Calif.) with 10% FBS and 1% Penicillin-Streptomycin on 24 well tissue culture plates, followed by treatment with 1-hydroxyl 3,5-bis(4′hydroxyl styryl)benzene (0.1 ug/mL) with and without TNF-a for 48 hr. Post-treatment, cells were lysed using RLT buffer and total RNA was isolated using the RNeasy Mini Kit (Qiagen, Valencia, Calif.). Quantitative PCR was performed using the Gene Amp PCR System 9700 and 7500 Real Time PCR System cycler (Applied Biosystems)/Life Technologies, Carlsbad, Calif.). Elastin (Qiagen) and Collagenlal primers (custom sequence-sense: 5′-TCC-CCA-GCT-GTC-TTA-TGG-CT-3′ and anti-sense: 5′-CAG-GCA-CGG-AAA-TTC-CTC-C-3′) were used. The housekeeping gene GAPDH was used for normalization (custom primer sequence: F 5′-ATC-TCT-GCC-CCC-TCT-GCT-G-3′ and R 5′-ATG-GTT-CAC-ACC-CAT-GAC-GA-3′; Invitrogen/Life Technologies, Carlsbad, Calif.). Fold-changes in PCR (normalized to GAPDH) were calculated from untreated.

IL-8 cytokine release = test: Anti-inflammatory activity: IL-8 cytokine release from epidermal equivalents after solar UV exposure; assay type: cell-based, human; conditions: for Change over vehicle alone (Normalized to 100) / % inhibition over UV treatment: IL-8 release; for Change over vehicle alone (Normalized to 100): 2 h before UV 70 kJ/m^2, 24 hours; for % inhibition over UV treatment: UV-exposed epidermal equivalents; for UV-induced inflammation (result in words): summary of Table 2
Method: The topical anti-inflammatory activities of 1-hydroxyl 3,5-bis(4′hydroxyl styryl)benzene and its piperazine salt were evaluated as follows.
Epidermal equivalents (EPI 200 HCF), multilayer and differentiated epidermis consisting of normal human epidermal keratinocytes, were purchased from MatTek (Ashland, Mass.). Upon receipt, epidermal equivalents were incubated for 24 hours at 37° C. in maintenance medium without hydrocortisone. Equivalents were topically treated (2 mg/cm^2) with 1-hydroxyl 3,5-bis(4′hydroxyl styryl)benzene thereof in a 70:30 Ethanol-Propylene glycol vehicle two hours before exposure to solar ultraviolet light (1000W-Oriel solar simulator equipped with a 1-mm Schott WG 320 filter; UV dose applied: 70 kJ/m^2 as measured at 360 nm). The equivalents were incubated for 24 hours at 37° C. with maintenance medium then supernatants were analyzed for IL-8 cytokine release using commercially available kits (Millipore Corp., Billerica, Mass.).

Collagen1A = test: Induction of Collagen1A gene expression in primary human dermal fibroblasts (quantitative PCR); assay type: cell-based; conditions: for Collagen1A Normalized Fold-change in PCR (Mean): 0.1 ug/mL, 48 hr, normalized to GAPDH, from untreated
Method: as §1

[2] = 0.5% topical (2 mg/cm^2) in 70:30 Ethanol-Propylene glycol
[3] = 1% topical (2 mg/cm^2) in 70:30 Ethanol-Propylene glycol

Oc1ccc(/C=C/c2cc(O)cc(/C=C/c3ccc(O)cc3)c2)cc1 [1-Hydroxyl 3,5-bis(4′hydroxylstyryl)benzene]
Percent NF-kB Inhibition ([1]; 0.2 ug/ml): 0.5%
Percent NF-kB Inhibition ([1]; 0.5 ug/ml): 22.1%
Percent NF-kB Inhibition ([1]; 1 ug/ml): 51.7%
Percent NF-kB Inhibition ([1]; 2 ug/ml): 71.0%
Percent NF-kB Inhibition ([1]; 4 ug/ml): 96.1%
Mean of MMP-9 Release (MMP-9; 0.25% w/v topical (2 mg/cm^2)): 1392 ± 627 ng/mL
Mean of MMP-9 Release (MMP-9; 0.5% w/v topical (2 mg/cm^2)): 1012 ± 249 ng/mL
inhibition at 0.25 % strength (MMP-9; Homo sapiens, 0.25% w/v topical, TNF-α 100 ng/mL, read-out: Percent Inhibition of MMP-9 Production (over TNF-α alone)): 60.9%
inhibition at 0.5 % strength (MMP-9; Homo sapiens, 0.5% w/v topical, TNF-α 100 ng/mL, read-out: Percent Inhibition of MMP-9 Production (over TNF-α alone)): 71.6%
formation of TNF-α induced MMP-9 (result in words) (MMP-9; summary of Table 4): inhibited the formation of TNF-α induced MMP-9
Elastin Normalized Fold-change in PCR (Mean) (Elastin; with TNF-α (10 ng/mL)): 1.12
Elastin Normalized Fold-change in PCR (Mean) (Elastin; without TNF-α): 6.23
expression of genes associated with elastin production (result in words) (Elastin; summary of Tables 3A and 3B): increased the expression of genes associated with collagen and elastin production
Change over vehicle alone (Normalized to 100) (IL-8 cytokine release; [2]): 82 ± 21
% inhibition over UV treatment (IL-8 cytokine release; 0.5% topical): 39%
Change over vehicle alone (Normalized to 100) (IL-8 cytokine release; [3]): 80 ± 26
% inhibition over UV treatment (IL-8 cytokine release; 1% topical): 40%
UV-induced inflammation (result in words) (IL-8 cytokine release): strong reduction in UV-induced inflammation
Collagen1A Normalized Fold-change in PCR (Mean) (Collagen1A; with TNF-α (10 ng/mL)): 1.36
Collagen1A Normalized Fold-change in PCR (Mean) (Collagen1A; without TNF-α): 2.96
expression of genes associated with collagen production (result in words) (Collagen1A; summary of Tables 3A and 3B): increased the expression of genes associated with collagen and elastin production

Oc1ccc(C=Cc2cc(O)cc(C=Cc3ccc(O)cc3)c2)cc1 [1-hydroxyl 3,5-bis(4′hydroxylstyryl)benzene]
Change over vehicle alone (Normalized to 100) (IL-8 cytokine release; [2]): 85 ± 14
% inhibition over UV treatment (IL-8 cytokine release; 0.5% topical): 37%
Change over vehicle alone (Normalized to 100) (IL-8 cytokine release; [3]): 81 ± 31
% inhibition over UV treatment (IL-8 cytokine release; 1% topical): 40%
UV-induced inflammation (result in words) (IL-8 cytokine release): strong reduction in UV-induced inflammation
